Data reported in DBAASP.
≈ marks a conversion by molar mass, not a printed value. Where “and” joins values, the source holds several entries; their conditions need not be identical. Equal values may be shown once. One block for each compound: values may come before it.

Experiments:
Assay in all cases: ≥ marks a high value that may be exact or a test limit, other limits are often not marked, values filed in µg/mL are converted to µM
[1] = test system: Bacillus subtilis ATCC 62037
[2] = test system: Saccharomyces cerevisiae ATCC 44774
[3] = test system: Salmonella enterica subsp. enterica serovar Enteritidis ATCC 13076
[4] = test system: Staphylococcus aureus ATCC 15752
[5] = test system: Cryptococcus neoformans ATCC 34881
[6] = test system: Escherichia coli ATCC 27325
[7] = test system: Streptococcus mutans ATCC 25175
[8] = test system: Candida albicans ATCC 10231
[9] = test system: Pseudomonas putida ATCC 17426
[10] = test system: Corynebacterium diphtheriae ATCC 8032
Staphylococcus aureus = test system: Staphylococcus aureus
[11] = test system: Bacillus subtilis ATCC 6633
[12] = test system: Staphylococcus aureus SG501
[13] = test system: Streptococcus pyogenes 308A
[14] = test system: Proteus vulgaris ATCC 6380
[15] = test system: Bacillus subtilis ATCC 1768
[16] = test system: Corynebacterium diphtheriae ATCC 8024
[17] = test system: Streptococcus pyogenes 77A
[18] = test system: Staphylococcus aureus ATCC 6538
[19] = test system: Candida albicans ATCC 36232
[20] = test system: Micrococcus luteus ATCC 10240
[21] = test system: Pseudomonas aeruginosa ATCC 9027
[22] = test system: Micrococcus luteus ATCC 9341
[23] = test system: Staphylococcus epidermidis ATCC 12228
[24] = test system: Shigella flexneri ATCC 203
[25] = test system: Escherichia coli ATCC 2592
Shigella flexneri = test system: Shigella flexneri
[26] = test system: Aspergillus flavus ATCC 46283
[27] = test system: Shigella flexneri ATCC 25875
[28] = test system: Aspergillus niger ATCC 20611
[29] = test system: Salmonella enterica subsp. enterica serovar Typhimurium ATCC 13311
[30] = test system: Staphylococcus aureus ATCC 29213
[31] = test system: Trichoderma viride ATCC 36316
[32] = test system: Pseudomonas aeruginosa ATCC 90271
Pseudomonas aeruginosa = test system: Pseudomonas aeruginosa
[33] = test system: Helicobacter pylori ATCC 43526
[34] = test system: Aspergillus fumigatus ATCC 16424
[35] = test system: Escherichia coli ATCC 15224
[36] = test system: Candida albicans ATCC 32354
[37] = test system: Shigella sonnei ATCC 25931
Escherichia coli = test system: Escherichia coli
Campylobacter jejuni = test system: Campylobacter jejuni
[38] = test system: Saccharomyces cerevisiae ATCC 24860
[39] = test system: Streptococcus pyogenes ATCC 10389
Shigella sonnei = test system: Shigella sonnei
Streptococcus pyogenes = test system: Streptococcus pyogenes
Salmonella typhimurium = test system: Salmonella typhimurium
[40] = test system: Campylobacter jejuni ATCC 43051
[41] = test system: Salmonella enterica subsp. enterica serovar Typhimurium ATCC 14028
[42] = test system: Shigella dysenteriae ATCC 9752
[43] = test system: Escherichia coli ATCC 25922
[44] = test system: Pseudomonas aeruginosa ATCC 27853
[45] = test system: Klebsiella pneumoniae ATCC 10031
[46] = test system: Staphylococcus aureus ATCC 6538P
[47] = test system: Staphylococcus aureus TK784

- MIC [1]: ≥ 68.4 µM
- MIC [2]: ≥ 68.4 µM
- MIC [3]: ≥ 68.4 µM
- MIC [4]: ≥ 68.4 µM
- MIC [5]: ≥ 68.4 µM
- MIC [6]: ≥ 68.4 µM
- MIC [7]: ≥ 68.4 µM
- MIC [8]: > 68.4 µM
- MIC [9]: ≥ 68.4 µM
SMILES: CC(C)[C@H](NC(=O)[C@H](CCCCN)NC(=O)CNC(=O)CNC(=O)[C@H](CCC(N)=O)NC(=O)[C@H](CCCCN)NC(=O)CNC(=O)[C@H](CCCN=C(N)N)NC(=O)CN)C(=O)N[C@@H](CCCN=C(N)N)C(=O)N[C@@H](C)C(=O)N[C@@H](CCCCN)C(=O)N[C@@H](C)C(=O)N[C@@H](CCCCN)C(=O)N[C@H](C(=O)N[C@@H](CCCN=C(N)N)C(=O)N[C@@H](CO)C(=O)N[C@@H](CO)C(=O)O)[C@@H](C)O [GRGKQGGKVRAKAKTRSS]

- MIC [10]: 1.32 µM
- MIC (Staphylococcus aureus): 5.5 µM
- MIC [11]: 0.22 µM
- MIC [12]: 0.176 µM
- MIC [13]: 0.352 µM
- MIC [14]: 6.6 µM
- MIC [15]: 0.44 µM
- MIC [16]: 1.76 µM
- MIC [17]: 0.22 µM
- MIC [18]: 1.38 µM
- MIC [19]: 22 µM
- MIC [20]: 1.1 µM
- MIC [21]: > 22 µM
- MIC [22]: 0.686 µM and 1.76 µM
- MIC [23]: 1.76 µM
- MIC [24]: 6.6 µM
- MIC [25]: 22 µM
SMILES: CC[C@H](C)[C@@H]1NC(=O)[C@H](CC(=O)O)NC(=O)[C@@H](NC(=O)[C@@H](NC(=O)[C@@H](N)C(C)C)[C@@H](C)O)CSSC[C@@H]2NC(=O)[C@H](Cc3ccc(O)cc3)NC(=O)CNC(=O)CNC(=O)[C@H](CO)NC(=O)[C@H](CCCN=C(N)N)NC(=O)CNC(=O)[C@H](CCCN=C(N)N)NC(=O)[C@H](Cc3ccccc3)NC(=O)[C@H](CC(C)C)NC(=O)[C@@H]3CSSC[C@@H](C(=O)N[C@@H](CCCN=C(N)N)C(=O)O)NC(=O)[C@H](C(C)C)NC(=O)[C@H](CSSC[C@H](NC(=O)[C@H](C)NC(=O)[C@H](C)NC(=O)[C@H](CC(=O)O)NC(=O)[C@H](CC(N)=O)NC(=O)[C@H](CC(C)C)NC(=O)[C@H](CCCCN)NC(=O)[C@H](C(C)C)NC(=O)CNC(=O)[C@H](CCCCN)NC(=O)[C@H](C)NC(=O)[C@H](CCC(=O)O)NC(=O)[C@H](C(C)C)NC(=O)[C@H](CO)NC(=O)[C@H](CC(C)C)NC1=O)C(=O)N[C@@H](C)C(=O)N[C@@H](C)C(=O)N[C@@H](Cc1cnc[nH]1)C(=O)N3)NC(=O)[C@H](C(C)C)NC(=O)[C@H](CCCN=C(N)N)NC(=O)[C@H](CCCCN)NC(=O)CNC(=O)[C@H](CC(N)=O)NC2=O [VTCDILSVEAKGVKLNDAACAAHCLFRGRSGGYCNGKRVCVCR]

- MIC (Shigella flexneri): 1.65 µM (≈ 4.7 µg/mL)
- MIC (Staphylococcus aureus): 3.01 µM (≈ 8.6 µg/mL)
- MIC [26]: 3.71 µM (≈ 10.6 µg/mL)
- MIC [27]: 1.47 µM (≈ 4.2 µg/mL)
- MIC [28]: 3.15 µM (≈ 9 µg/mL)
- MIC [29]: 1.72 µM (≈ 4.9 µg/mL)
- MIC [30]: 2.56 µM (≈ 7.3 µg/mL)
- MIC [31]: 4.62 µM (≈ 13.2 µg/mL)
- MIC [32]: 1.54 µM (≈ 4.4 µg/mL)
- MIC (Pseudomonas aeruginosa): 1.33 µM (≈ 3.8 µg/mL)
- MIC [33]: 1.61 µM (≈ 4.6 µg/mL)
- MIC [34]: 3.68 µM (≈ 10.5 µg/mL)
- MIC [35]: 1.3 µM (≈ 3.7 µg/mL)
- MIC [36]: 3.96 µM (≈ 11.3 µg/mL)
- MIC [37]: 1.58 µM (≈ 4.5 µg/mL)
- MIC (Escherichia coli): 1.26 µM (≈ 3.6 µg/mL)
- MIC (Campylobacter jejuni): 1.54 µM (≈ 4.4 µg/mL)
- MIC [38]: 4.97 µM (≈ 14.2 µg/mL)
- MIC [39]: 2.63 µM (≈ 7.5 µg/mL)
- MIC (Shigella sonnei): 1.65 µM (≈ 4.7 µg/mL)
- MIC (Streptococcus pyogenes): 2.7 µM (≈ 7.7 µg/mL)
- MIC (Salmonella typhimurium): 1.54 µM (≈ 4.4 µg/mL)
- MIC [40]: 1.4 µM (≈ 4 µg/mL)
SMILES: CC[C@H](C)[C@H](NC(=O)CNC(=O)[C@H](CCC(N)=O)NC(=O)CNC(=O)[C@@H](NC(=O)[C@H](CCCCN)NC(=O)[C@H](CCC(=O)O)NC(=O)[C@@H](NC(=O)[C@H](CCCCN)NC(=O)[C@H](CCCCN)NC(=O)[C@H](Cc1ccccc1)NC(=O)[C@H](CC(C)C)NC(=O)[C@H](CCCCN)NC(=O)[C@H](Cc1c[nH]c2ccccc12)NC(=O)[C@@H](N)CCCCN)[C@@H](C)CC)C(C)C)C(=O)NCC(=O)N[C@@H](C)C(=O)N[C@H](C(=O)N[C@@H](CC(C)C)C(=O)N[C@@H](CCCCN)C(=O)N[C@H](C(=O)N[C@@H](CC(C)C)C(=O)N[C@H](C(=O)N[C@H](C(=O)NCC(=O)N[C@@H](CC(C)C)C(N)=O)[C@@H](C)O)[C@@H](C)O)C(C)C)C(C)C [KWKLFKKIEKVGQGIGAVLKVLTTGL]

- MIC [11]: 4.07 µM (≈ 5 µg/mL)
- MIC [41]: 32.6 µM (≈ 40 µg/mL)
- MIC [42]: ≥ 32.6 µM
- MIC [43]: 4.07 µM (≈ 5 µg/mL)
- MIC [44]: 32.6 µM (≈ 40 µg/mL)
- MIC [45]: 16.3 µM (≈ 20 µg/mL)
- MIC [46]: 2.04 µM (≈ 2.5 µg/mL)
- MIC [47]: 16.3 µM (≈ 20 µg/mL)
- MIC [20]: 8.15 µM (≈ 9.99 µg/mL)
- MIC [23]: 4.07 µM (≈ 5 µg/mL)
SMILES: CC(C)C[C@H](NC(=O)[C@H](Cc1c[nH]c2ccccc12)NC(=O)[C@H](CCCCN)NC(=O)[C@H](CC(C)C)NC(=O)[C@H](CC(C)C)NC(=O)[C@H](Cc1c[nH]c2ccccc12)NC(=O)[C@H](CCCCN)NC(=O)[C@@H](N)CC(C)C)C(=O)N[C@@H](CCCCN)C(N)=O [LKWLLKWLK]
